Experimental data: patent publication US6573060B1, “Methods and compositions for targeting DNA metabolic processes using aminoglycoside derivatives” (University of Virginia Patent Foundation, priority 1997, dated 2003)
“Also recorded” adds a separate entry of the source.

Assays:
CHO non-K1 cells = assay: DNA replication assay in permeabilized CHO non-K1 cells; type: cell-based; details: phosphokanamycin 100 μM, phosphoneomycin 10 μM (FIG. 7)
Description: CHO non-K1 cells were used for the DNA replication assay. Cells were grown to density of 2×10^7 cells/plate in MEM medium supplemented with fetal calf serum. The cells were in log phase and unsynchronized. The plates were washed three times with cold MEM medium and cells were scraped off the plates into eppendorf tubes. The cells were centrifuged at 2000 rpm for 3 mm at 4° C. From each plate approximately 100 μl of cells were obtained. The cell pellet was resuspended in an equal volume of replication buffer [100 mM HEPES (pH 7.8), 0.2 mM dGTP, 0.2 mM DATP, 0.2 mM dTTP, 0.4 mM GTP, 0.4 mM CTP, 0.4 mM UTP, 8 mM ATP, 20 mM MgCl2, 0.2 mg/ml BSA, 2 mM DTT, 30% glycerol]. The cell suspension (20 μl) was aliquoted to individual tubes. Aminoglycosides and phosphoaminoglycosides were then added to the required final concentration. The cells were permeabilized by the addition of 0.5 μl of 20% NP-40 detergent. To monitor replication, 2 μl of α[^32 P] dCTP (3000-6000 Ci/mmole activity) was added. The cells were incubated at 37° C. for 10 min and the reaction was stopped by addition of 200 μl of stop buffer [50 mM TrisCl (pH 8.0), 10 mM EDTA, 400 mM NaCl, 1% SDS]. The cells were further incubated at 37° C. for 2 hours.
The DNA was sheared by passing 5-10 times through a 23 gauge needle. […] After drying, the radioactivity was measured using a liquid scintillation counter (Beckman).

LNCaP cell line = assay: MTS cell survival assay, LNCaP prostate cancer cells; type: cell-based; details: Homo sapiens, 120 h, 8 wells, 5 days
Description: The effect of phosphoaminoglycosides on tumor cell growth was tested in cell culture inhibition studies. 5000 cells were plated in a total volume of 50 μl in a 96 well titer plate. After 24 hours, 50 μl of media and drugs, to the required final concentration, were added. The plates were incubated at 37° C. for 5 days. On the 5th day, the fraction of surviving cells was estimated using a non-radioactive cell proliferation assay (CellTiter 96 AQueous Cell Proliferation Assay from Promega).
This is a colorimetric assay that determines the number of viable cells. The assay measures the bioreduction of a tetrazolium compound (3-(4,5-dimethylthiazol-2-yl)-5-(3-carboxymethoxyphenyl)-2-(4-sulfophenyl)-2H-tetrazolium, inner salt; MTS), via an electron coupling reagent (phenazine methosulfate; PMS), to formazan, which is soluble in the tissue culture medium. The absorbance of formazan at 490 nm can be measured from the 96 well assay plate without additional processing. The conversion of MTS into the aqueous soluble formazan is accomplished by dehydrogenase enzymes found in metabolically active cells. The quantity of formazan product as measured by the amount of 490 nm absorbance is directly proportional to the number of living cells in culture. […] 20 μl of PMS/MTS solution was added to the cells and the plates were incubated at 37° C. for 2 hours before measuring the absorbance at 490 nm. […]

[1] = tested on: Human PC3 (prostate cancer) cells; assay: Human PC3 subcutaneous tumors in nude, athymic mice, intratumoral injection; type: in vivo
Description: Human PC3 (prostate cancer) cells were implanted subcutaneously in nude, athymic mice. Following tumor development to a size of approximately 200 cubic millimeters, tumors were injected directly with 50 μl of 1.3 mM phosphokanamycin every Monday, Wednesday, and Friday for two weeks.
CRL: CD-lnu/nu Br mice (nude, athymic) were obtained from Charles River Animal Resources Facility. Human PC3 cells were grown in RPMI 1640 media containing 10% serum, 200 μl of this cell culture was diluted 1:1 with Matrigel (Collaborative Biomedical Products) such that the total number of cells after dilution were 2×10^6. The cells were then injected on the underside of the flank and the development of subcutaneous tumor size was monitored by measurement with Vernier calipers.
Therapy with the drugs was started when the tumor size reached 200 mm^3. The drugs were solubilized in PBS (0.35 g NaH2PO4, 1.06 g Na2HPO and 8.5 g in a total volume of 1 L, pH 7.2), pH was adjusted to 7.2 using phosphoric acid and filter sterilized before injection. 50 μl of the drug (1.3 mM phosphokanamycin) was administered by direct injection into the tumor every Monday, Wednesday, and Friday for two weeks. The tumor size was monitored by measurement with Vernier calipers. The mice were euthanized when the tumor size exceeded 1000 mm^3 or when the weight of the mice decreased by more than 15% of their starting weight. The tumor size was calculated using the following formula:
volume=[length×(width)^2]/2

Leishmania chagasi = Leishmania chagasi culture growth; type: cell-based; details: FIGS. 12A-B
Description: Leishmania chagasi cells were grown in HO-MEM medium to a cell density of 1×10^6 cells/ml. 50 μl of drug were mixed with 50 μl of media in the first well of a 96 well micro titer plate. Serial, two-fold dilutions were then made by taking 50 μl of the solution in the first well and diluting it into the second well and this process was repeated through the 12 wells of an entire row of the 96 well plate. This gives a 2-fold difference in the concentration of the drug between the wells in that row. This procedure was repeated for all the inhibitors. 50 μl of Leishmania chagasi, at a cell density of 1×10^6 cells/ml, was then added to the wells. The micro titer plate was incubated at 30° C. under anaerobic conditions. Cells were counted under light microscope every 24 hours after addition of drugs.

## NC[C@H]1O[C@H](O[C@H]2[C@H](O)[C@@H](O[C@H]3O[C@H](CO)[C@@H](O)[C@H](N)[C@H]3O)[C@H](N)C[C@@H]2N)[C@H](O)[C@@H](OP(=O)(O)O)[C@@H]1O [phosphokanamycin, 3′-phosphokanamycin]
CHO non-K1 cells
  effect on DNA synthesis (in words): disrupted DNA synthesis
LNCaP cell line
  viability at 100 µM: 109 ± 9%
[1]; 50 μl of 1.3 mM into the tumor Mon/Wed/Fri for two weeks
  effect on tumors (in words): tumor cells were killed; also recorded: Tumors regress in size and ultimately disappear
[1]; metastasis had occurred before treatment
  remote lesions (metastasis) after treatment: no remote lesions are detected
[1]; relative to untreated controls
  longevity of treated mice: significant longevity relative to the untreated controls
[1]; treatments lasting as long as 8 weeks
  toxicity: no detectable toxicity
Leishmania chagasi
  killing of Leishmania cells (in words): clearly effective in killing the cells
